Reference: patent US20140363810A1, “METHOD OF MEASURING HUMAN CYP3A INDUCIBILITY” (SEKISUI MEDICAL CO., LTD., priority 2002, published 2014)

Columns and labels:
[1] = system: CYP3A4 inducibility (luciferase reporter AdCYP3A4-362-7K with hPXR expression); experiment: in vitro reporter assay, cultured cells infected with virus (A) (AdCYP3A4-362-7K) and virus (B) (AdhPXR); conditions: 10 μM, virus (A) AdCYP3A4-362-7K plus virus (B) AdhPXR
Description: (§1) A recombinant adenovirus was constructed through the following process.
(§2) Briefly, cells were seeded in a 24-well plate in an amount of 2.0×10^5 cells per well. On the following day; i.e., day 1, the cells were treated with a drug. On day 2, the drug-treated cells were infected with virus, and, 48 hours after viral infection, the cells were recovered. The recovered cells were lysed by use of a reporter lysis buffer (RLB), and the luciferase activity of the lysate was measured.
(§3) Next, virus (B) (AdhPXR) was employed to thereby cause strong expression of hPXR.

[2] = system: CYP3A4 inducibility (luciferase reporter AdCYP3A4-362-7K); experiment: in vitro reporter assay, cultured cells infected with virus (A) (AdCYP3A4-362-7K); conditions: 10 μM, without virus (B)
Description: as §1, §2, §3

[3] = system: CYP3A4 inducibility (luciferase reporter, CYP3A4 -362 to +11 fragment); experiment: in vitro reporter (luciferase) assay, cultured cells infected with AdCYP3A4-362 virus; conditions: 10 μM in DMSO, human liver-cancer-derived cultured cells
Description: as §1, §2
All these drugs are known to elicit CYP3A4 induction when administered to humans.

[4] = system: CYP3A4 inducibility (luciferase reporter AdCYP3A4-362); experiment: in vivo assay, luciferase activity in liver S-9 of mice given AdCYP3A4-362 virus; conditions: 100 mg/kg intraperitoneally once a day for three days, liver two days after virus
Description: (§4) The initial plan for viral administration was an intravenous route through the tail vein. […] Therefore, the route was changed to intraperitoneal administration so that the animal could not acutely respond to the virus. […] Two days after virus administration, each animal was dissected to remove the organ of interest (liver). The liver was homogenized and centrifuged at 9,000×g. Luciferase activity of the supernatant (S-9) was measured (FIG. 4).

[5] = system: human CYP3A4 inducibility (luciferase reporter AdCYP3A4-362-7K with human PXR expression); experiment: in vivo assay, mice infected with virus (A) (AdCYP3A4-362-7K) and virus (B) (AdhPXR); conditions: 100 mg/kg/day×3; virus (A) AdCYP3A4-362-7K, co-administration with virus (B) per FIG. 8
Description: as §4

Clc1ccccc1C(c1ccccc1)(c1ccccc1)n1ccnc1 [clotrimazole]
luciferase activity relative to non-treatment [1]: 60 times | induction of luciferase activity [2]: 21 times | elevated luciferase activity level [3]: about eight | increase of luciferase activity in mouse liver S-9 compared with control [4]: about nine | attained inducibility (transcription activation) in mice infected with virus (A) [5]: 1,000 times
